Entries after “also recorded” stand apart in the source; their conditions may differ. Marks after values point to notes of the source that are not given here.
Experiments:
[1] = tested on: (NZB×NZW)F1 mice with established SLE; assay: ELISA for dsDNA-specific antibodies in sera of treated SLE-afflicted mice; format: in vivo; conditions: bled after termination of treatment, s.c. once a week for 10 weeks
Method: (§1) Treatment of (NZB×NZW)F1 mice with edratide. Female mice aged 6-7 months, with established SLE, were divided into groups (8-10 mice per group) and injected subcutaneously (s.c.) with edratide (25-50 μg) or vehicle only (Captisol®) once a week for 10 weeks. Proteinuria and anti-double stranded DNA (dsDNA) autoantibodies were monitored throughout this period.
Enzyme-linked immunosorbent assay (ELISA) for the detection of dsDNA-specific antibodies. Anti-dsDNA-specific antibodies were determined using lambda phage dsDNA as previously described (5).
(§2) Treatment with edratide ameliorates disease manifestations in (NZB×NZW)F1 mice with established SLE. SLE-afflicted female mice, aged 6-7 months, were treated with 10 weekly s.c. injections of edratide or vehicle (Captisol®) and followed for disease manifestations. One week after the treatment ended the mice were killed and their kidneys were evaluated for immune-complex deposits. The results of a representative experiment are presented in Table 1 below, which summarizes some clinical manifestations of the experimental mice.

[2] = tested on: (NZB×NZW)F1 mice with established SLE; assay: Proteinuria, semi-quantitative Albustix test; format: in vivo; conditions: at the end of the experiment; s.c. once a week for 10 weeks
Method: as §1
Proteinuria. Proteinuria was measured by a standard semi-quantitative test, using an Albustix kit (Bayer Diagnostics, Newbury, UK).
as §2

[3] = tested on: (NZB×NZW)F1 mice with established SLE; assay: Immunohistology of kidney sections for immune-complex deposits; format: in vivo; conditions: graded 0 none, 1 low, 2 moderate, 3 high intensity, s.c. once a week for 10 weeks
Method: as §1
Immunohistology. For detection of immune-complex deposits, frozen kidney sections (6 μm) were air-dried and fixed in acetone. Sections were incubated with FITC-conjugated goat anti-mouse IgG (gamma-chain specific; Jackson ImmunoResearch Laboratories, Avondale, Pa.) for 30 minutes and were extensively washed with PBS. The intensity of immune-complex deposits was graded on a […]: 0, no deposits; 1, low-intensity deposits; 2, moderate-intensity deposits; 3, high-intensity deposits.
as §2

[4] = tested on: splenocytes of SLE-afflicted (NZB×NZW)F1 mice; assay: Affymetrix microarray of RNA from splenocytes of treated mice; format: in vivo
Description: Preparation of RNA. Using the RNA/DNA/protein isolation reagent (TRI Reagent®; Molecular Research Center, Cincinnati, Ohio), total RNA was isolated from spleen cells that were pooled (n=2-4 mice) from each experimental group of (NZB×NZW)F1 mice.
Microarray and statistics. RNA samples were hybridized to the mouse genome AffymetrixGeneChip® 430A2 (Affymetrix, Santa Clara, Calif.) array. R packages were used from the Bioconductor project (23). Initially, probe signal summarization, normalization, and background subtraction were performed using Robust Multi-array Averaging (RMA) (24) in affy package with default parameters. Then, the statistical test for differentially expressed genes was performed using Linear Models for Microarray (LIMMA) package (25), which allows for a better variance estimation by calculating the moderated t-statistic using empirical Bayesian techniques. Finally, genes were selected that were statistically significant with P value <0.05 in each biological comparison of interest separately.
Microarray analysis of immunocytes from SLE-afflicted mice. In an attempt to identify gene expression profiles characteristic of SLE and to gain an insight into the modified profile induced by edratide, DNA microarray technology was used on RNA preparations from splenocytes of SLE-afflicted (NZB×NZW)F1 mice treated with edratide or with vehicle only (as described above and in Table 1). […] Three independent in vivo experiments were successfully performed. The RNA obtained in each experiment was hybridized independently on the Affymetrix chips.

[5] = tested on: spleen cells of SLE-afflicted (NZB×NZW)F1 mice; assay: Real-time RT-PCR of spleen cell mRNA from treated mice; format: in vivo; conditions: normalized to β-actin
Method: Real-time RT-PCR. Messenger RNA (mRNA) was analyzed by quantitative real-time RT-PCR using LightCycler (Roche Diagnostics, Mannheim, Germany). Total RNA was isolated from spleen cells pooled from each treatment group (n=2−4) of (NZB×NZW)F1 mice. To prepare cDNA, RNA was reverse-transcribed using Moloney murine leukemia virus (M-MLV) reverse transcriptase (Promega, Madison, Wis.). The resulting cDNA was subjected to real-time RT-PCR according to the manufacturer's instructions. Briefly, the reaction volume (20 μl) contained 3 mM MgCl2, LightCycler hot start DNA SYBR Green I mix (Roche), specific primer pairs, and 5 μl of cDNA. Conditions for PCR were as follows: 10 minutes at 95° C. followed by 35-50 cycles of 15 seconds at 95° C., 15 seconds at 60° C., and 15 seconds at 72° C. Primer sequences (forward and reverse, respectively) were used as follows:
β-actin levels were used for normalization in calculating the expression levels of all other genes.
Real-time RT-PCR analysis. […] These genes were chosen because they reportedly meet at least one of the following three criteria: involvement in SLE, functioning in lymphocytes, and expression in the kidney.

[6] = tested on: OX40L; assay: Immunostaining of kidney sections for OX40L expression; format: in vivo; conditions: 6 edratide-treated mice; intense staining in all 5 vehicle-treated mice
Method: Immunohistochemistry of kidney sections. Frozen cryostat sections (6 μm) were air-dried and fixed in acetone. For detection of OX40 ligand (OX40L) expression, sections were incubated for 16 hours at room temperature with anti-OX40L monoclonal antibody (M−20; Santa Cruz Biotechnology, Santa Cruz, Calif.). FITC-conjugated mouse anti-goat IgG (Jackson ImmunoResearch Laboratories, West Grove, Pa.) was then added.
Immunostaining of kidneys of (NZB×NZW)F1 mice for OX40L expression. […] Immunohistological analysis of kidney sections from 5 SLE-afflicted vehicle-treated or 6 edratide-treated mice and 3 disease-free young mice was performed.

[7] = tested on: SLE-afflicted mice; conditions: cited from earlier work
[8] = SLE-afflicted mice, reference 5

GYYWSWIRQPPGKGEEWIG (hCDR (Edratide) synthetic peptide) [synthetic peptide based on the CDR1 of the human monoclonal anti-DNA antibody bearing the common idiotype 16/6Id]
Anti dsDNA antibodies (OD), Dilution 1:10 ([1]; serum dilution 1:10, mean ± spread): 1.46 ± 0.32 OD
Anti dsDNA antibodies (OD), Dilution 1:250 ([1]; serum dilution 1:250): 0.48 ± 0.21 OD
Proteinuria [2]: 1.92 ± 0.96 g/L
Intensity of ICD (immune-complex deposits) [3]: 1.33 ± 0.36
Fold difference in expression, edratide-treated (hCDR1) vs SLE mice: 1190003K14Rik ([4]; gene 1190003K14Rik, splenocytes): 2.4 fold
Fold difference in expression, edratide-treated vs SLE mice: 2700022B06Rik ([4]; gene 2700022B06Rik, not statistically significant): −1.4^† fold
Fold difference in expression, edratide-treated vs SLE mice: 5830484A20Rik ([4]; gene 5830484A20Rik, splenocytes, negative = reduction in signal): −3.0 fold
Fold difference in expression, edratide-treated vs SLE mice: A130040M12Rik ([4]; gene A130040M12Rik, not statistically significant): 1.3^† fold
Fold difference in expression, edratide-treated vs SLE mice: Ass1 ([4]; gene Ass1, not statistically significant): −1.2^† fold
Fold difference in expression, edratide-treated (hCDR1) vs SLE mice: Camp ([4]; gene Camp, splenocytes): 2.8 fold
Fold difference in expression, edratide-treated vs SLE mice: Cd8b1 ([4]; gene Cd8b1, not statistically significant): 2.0^† fold
Fold difference in expression, edratide-treated (hCDR1) vs SLE mice: Ctsg ([4]; gene Ctsg, not statistically significant): 1.2^† fold
Fold difference in expression, edratide-treated vs SLE mice: Cyp11a1 ([4]; gene Cyp11a1, not statistically significant): −1.8^† fold
Fold difference in expression, edratide-treated vs SLE mice: Dhx9 ([4]; gene Dhx9, not statistically significant): −1.0^† fold
Fold difference in expression, edratide-treated vs SLE mice: Fzd6 ([4]; gene Fzd6, splenocytes, negative = reduction in signal): −2.9 fold
Fold difference in expression, edratide-treated vs SLE mice: Gpr132 ([4]; gene Gpr132, not statistically significant): −1.1^† fold
Fold difference in expression, edratide-treated vs SLE mice: Hdgfrp3 ([4]; gene Hdgfrp3, not statistically significant): −1.7^† fold
Fold difference in expression, edratide-treated vs SLE mice: IL5Rα ([4]; gene IL5Rα, splenocytes, negative = reduction in signal): −2.0 fold
Fold difference in expression, edratide-treated vs SLE mice: LOC 545340 ([4]; gene LOC 545340, splenocytes, negative = reduction in signal): −2.7 fold
Fold difference in expression, edratide-treated (hCDR1) vs SLE mice: Lcn ([4]; gene Lcn (Lipocalin 2), splenocytes): 2.9 fold
Fold difference in expression, edratide-treated vs SLE mice: Lmo7 ([4]; gene Lmo7, splenocytes, negative = reduction in signal): −2.8 fold
Fold difference in expression, edratide-treated (hCDR1) vs SLE mice: Ltf ([4]; gene Ltf, splenocytes): 3.2 fold
Fold difference in expression, edratide-treated (hCDR1) vs SLE mice: Mpo ([4]; gene Mpo, not statistically significant): 1.5^† fold
Fold difference in expression, edratide-treated (hCDR1) vs SLE mice: Ngp ([4]; gene Ngp, splenocytes): 2.5 fold
Fold difference in expression, edratide-treated vs SLE mice: Nid1 ([4]; gene Nid1, splenocytes, negative = reduction in signal): −2.4 fold
Fold difference in expression, edratide-treated vs SLE mice: Pigr ([4]; gene Pigr, not statistically significant): −1.4^† fold
Fold difference in expression, edratide-treated (hCDR1) vs SLE mice: Prtn3 ([4]; gene Prtn3, not statistically significant): 1.3^† fold
Fold difference in expression, edratide-treated vs SLE mice: Pstpip2 (second entry) ([4]; gene Pstpip2, entry with SLE fold 2.0, not statistically significant): −1.5^† fold
Fold difference in expression, edratide-treated vs SLE mice: Pstpip2 (first entry) ([4]; gene Pstpip2, entry with SLE fold 2.2, not statistically significant): −1.9^† fold
Fold difference in expression, edratide-treated vs SLE mice: Rnf184 ([4]; gene Rnf184, not statistically significant): 1.2^† fold
Fold difference in expression, edratide-treated (hCDR1) vs SLE mice: S100a8 ([4]; gene S100a8, splenocytes): 2.4 fold
Fold difference in expression, edratide-treated (hCDR1) vs SLE mice: S100a9 ([4]; gene S100a9, splenocytes): 2.4 fold
Fold difference in expression, edratide-treated (hCDR1) vs SLE mice: Slfn ([4]; gene Slfn (Schlafen 4), splenocytes): 2.7 fold
Fold difference in expression, edratide-treated (hCDR1) vs SLE mice: Tfpi ([4]; gene Tfpi, splenocytes): 2.2 fold
Fold difference in expression, edratide-treated (hCDR1) vs SLE mice: Thbs1 ([4]; gene Thbs1, not statistically significant): 1.5^† fold
Fold difference in expression, edratide-treated vs SLE mice: Tnfsf4 ([4]; gene Tnfsf4, splenocytes, negative = reduction in signal): −2.5 fold
Fold difference in expression, edratide-treated vs SLE mice: Zbtb20 ([4]; gene Zbtb20, splenocytes, negative = reduction in signal): −2.2 fold
Fold difference in expression, edratide-treated vs SLE mice: Unknown gene ([4]; gene title and symbol Unknown, SLE fold 1.9): −1.7 fold
Number of genes down-regulated 2-fold or more in diseased mice that were up-regulated after treatment ([4]; of the 12 identified genes): 9 (75%) genes
Number of genes up-regulated 2-fold or more in SLE-afflicted mice that were significantly down-regulated after treatment ([4]; of the 15 genes with an identified product): 9 (60%) genes
Number of disease-altered genes affected by edratide and restored to levels similar to disease-free controls ([4]; of the 348 genes with altered expression in vehicle-treated diseased mice (22%)): 76 genes
Real-time RT-PCR expression of Tfpi and S100a8 transcripts ([5]; genes down-regulated by the disease, FIG. 2B): up-regulated after edratide treatment to levels similar to those in the young controls
Real-time RT-PCR expression of Tnfsf4, Il-5rα, Zbtb20 and Nid1 transcripts ([5]; genes up-regulated by the disease, FIG. 2A): reduced the expression of these genes to levels similar to those seen in the young mice
OX40L expression in kidney sections (immunostaining) [6]: very weak (in 2 mice and 1 mouse, respectively) or undetectable (in 4 and 2 mice, respectively); also recorded: down-regulated
Kidney disease ([7]; (NZB×NZW)F1 mice, WO 02/067848): reduced kidney disease
Immunosuppressive cytokine TGFβ [7, 8]: up-regulated
Secretion and expression of pathogenic cytokines (IFNγ, IL-1β, TNFα, IL-10) [7, 8]: reduced secretion and expression
